According to ChEMBL document CHEMBL1201862, “PubChem BioAssay data set” (2004):
The source made the active and inactive calls.

Key:
[1] = Luminescence Cell-Based Dose Response HTS to Identify Activators of Luciferase Translation or Activity in H4 […] Cells. [Related pubchem assays: 1829 (Project Summary), 1814 (Primary HTS)]; assay type: functional
H4 = assay: Luminescence Cell-Based Dose Response HTS to Identify Activators of 5'UTR Stem-Loop Driven Prion Protein mRNA Translation in H4 Neuroglioblastoma Cells. [Related pubchem assays: 1829 (Project Summary), 1814 (Primary HTS)]; assay type: functional; conditions: Homo sapiens
[2] = Luminescence Cell-Based Dose Confirmation HTS to Identify Activators of 5'UTR Stem-Loop Driven Alpha-Synuclein mRNA Translation in H4 Neuroglioblastoma Cells. [Related pubchem assays: 1829 (Project Summary), 1814 (Primary HTS)]; assay type: functional
Cytochrome P450 2D6 = Cytochrome P450 2D6 (Homo sapiens, UniProt P10635);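 further: CYP2D6 member of a cytochrome P450 panel assay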
[3] = HEp-2 cell cytotoxicity, dose response, cytotoxicity control for RSV inhibitor project, HTS (AID 2410); assay type: functional; conditions: human respiratory syncytial virus
[4] = target: T1, Corticotropin-releasing factor receptor 2/Corticotropin-releasing factor-binding protein (Homo sapiens, UniProt P24387+Q13324); assay: Dose Response confirmation of uHTS hits for small molecule antagonists of the CRF-binding protein and CRF-R2 receptor complex.; assay type: functional; conditions: read-out: IC50_Mean
T1 sequence (Q13324 whole entry): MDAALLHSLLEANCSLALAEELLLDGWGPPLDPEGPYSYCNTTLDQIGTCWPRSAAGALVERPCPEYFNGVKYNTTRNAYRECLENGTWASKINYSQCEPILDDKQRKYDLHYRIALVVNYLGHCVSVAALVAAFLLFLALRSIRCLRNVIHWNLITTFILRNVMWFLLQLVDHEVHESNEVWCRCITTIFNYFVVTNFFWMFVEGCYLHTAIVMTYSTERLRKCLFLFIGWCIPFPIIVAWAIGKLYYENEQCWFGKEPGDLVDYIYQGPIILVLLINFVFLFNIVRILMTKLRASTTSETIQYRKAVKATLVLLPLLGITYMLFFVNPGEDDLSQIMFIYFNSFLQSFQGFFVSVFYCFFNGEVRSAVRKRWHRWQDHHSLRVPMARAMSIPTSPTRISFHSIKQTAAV
T1 sequence (P24387 whole entry): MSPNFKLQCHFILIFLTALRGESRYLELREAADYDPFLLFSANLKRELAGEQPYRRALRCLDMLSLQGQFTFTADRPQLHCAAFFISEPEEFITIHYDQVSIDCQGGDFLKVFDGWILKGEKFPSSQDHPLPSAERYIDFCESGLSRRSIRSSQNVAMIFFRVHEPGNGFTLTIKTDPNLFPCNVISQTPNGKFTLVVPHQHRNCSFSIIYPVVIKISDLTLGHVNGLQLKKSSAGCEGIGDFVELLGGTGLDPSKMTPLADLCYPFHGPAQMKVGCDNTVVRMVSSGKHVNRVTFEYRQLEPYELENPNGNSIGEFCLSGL

[5] = target: T1, Corticotropin-releasing factor receptor 2/Corticotropin-releasing factor-binding protein; assay: activators of CRF receptor 2 with binding protein – uHTS hits, confirmation (AID 602473); assay type: functional; conditions: read-out: EC50_Mean
[6] = Luminescence Cell-Based Dose Retest to Confirm Inhibitors of Cancer Stem Cells. [Related pubchem assays (depositor defined):AID2717, AID2721]; assay type: functional; conditions: Homo sapiens
[7] = cytotoxicity toward NIH3T3 fibroblasts, dose response, counter-screen, cell-based, ATP luminescence, mouse fibroblasts (AID 2010); assay type: functional;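 further: cells exposed to compound for about 90 hours before reading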
[8] = inhibitors of intracellular T. cruzi replication, confirmation, NIH3T3 host cells, beta-gal luminescence (AID 2044); assay type: functional, cell-based;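 further: intracellular parasites grown in NIH/3T3 mouse fibroblasts as host cells; luminescent beta-galactosidase reporter signal from transgenic T. cruzi replicating inside host cells; inhibitors lower the luminescence signal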
[9] = target: T2, Heat shock factor protein 1 (Mus musculus, UniProt P38532); assay: inhibition of MG132-induced HSE-luciferase signal, confirmation, cell-based, NIH3T3, luminescence, dose retest (AID 2382); assay type: functional;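 further: NIH3T3 fibroblasts with HSF1-driven luciferase reporter stressed by proteasome inhibitor MG132; luminescence from HSF1-driven luciferase expression after 8 hours of MG132 stress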
T2 sequence (P38532 whole entry): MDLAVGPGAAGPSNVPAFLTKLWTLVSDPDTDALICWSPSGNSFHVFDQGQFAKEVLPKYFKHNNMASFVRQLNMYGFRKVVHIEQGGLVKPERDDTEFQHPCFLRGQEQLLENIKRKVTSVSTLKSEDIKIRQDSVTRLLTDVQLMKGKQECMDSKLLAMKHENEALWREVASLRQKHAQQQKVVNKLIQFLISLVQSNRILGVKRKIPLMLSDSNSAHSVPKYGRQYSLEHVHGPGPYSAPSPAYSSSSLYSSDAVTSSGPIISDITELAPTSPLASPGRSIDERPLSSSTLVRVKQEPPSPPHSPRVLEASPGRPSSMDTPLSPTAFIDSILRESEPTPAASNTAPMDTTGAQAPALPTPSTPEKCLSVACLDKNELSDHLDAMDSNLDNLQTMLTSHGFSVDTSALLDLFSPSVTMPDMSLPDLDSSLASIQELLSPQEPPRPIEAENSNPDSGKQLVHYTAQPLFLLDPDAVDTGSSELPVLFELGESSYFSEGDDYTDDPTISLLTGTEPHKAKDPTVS

Cytochrome P450 3A4 = Cytochrome P450 3A4 (Homo sapiens, UniProt P08684);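 further: CYP3A4 tested as one member of a cytochrome P450 panel screen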
Cytochrome P450 2C19 = Cytochrome P450 2C19 (Homo sapiens, UniProt P33261); assay: Cytochrome panel assay with activity outcomes. Panel member name: p450-cyp2c19 Compounds with AC50 equal or less than 10 uM are considered active; assay type: functional; conditions: read-out: AC50
[10] = target: T3, Rac GTPase-activating protein 1 (Homo sapiens, UniProt Q9H0H5); assay: MgcRacGAP GTPase-activating activity inhibitors, confirmation, biochemical, ADP Hunter fluorescence, primary and confirmatory (AID 624330); assay type: functional
T3 sequence (Q9H0H5 whole entry): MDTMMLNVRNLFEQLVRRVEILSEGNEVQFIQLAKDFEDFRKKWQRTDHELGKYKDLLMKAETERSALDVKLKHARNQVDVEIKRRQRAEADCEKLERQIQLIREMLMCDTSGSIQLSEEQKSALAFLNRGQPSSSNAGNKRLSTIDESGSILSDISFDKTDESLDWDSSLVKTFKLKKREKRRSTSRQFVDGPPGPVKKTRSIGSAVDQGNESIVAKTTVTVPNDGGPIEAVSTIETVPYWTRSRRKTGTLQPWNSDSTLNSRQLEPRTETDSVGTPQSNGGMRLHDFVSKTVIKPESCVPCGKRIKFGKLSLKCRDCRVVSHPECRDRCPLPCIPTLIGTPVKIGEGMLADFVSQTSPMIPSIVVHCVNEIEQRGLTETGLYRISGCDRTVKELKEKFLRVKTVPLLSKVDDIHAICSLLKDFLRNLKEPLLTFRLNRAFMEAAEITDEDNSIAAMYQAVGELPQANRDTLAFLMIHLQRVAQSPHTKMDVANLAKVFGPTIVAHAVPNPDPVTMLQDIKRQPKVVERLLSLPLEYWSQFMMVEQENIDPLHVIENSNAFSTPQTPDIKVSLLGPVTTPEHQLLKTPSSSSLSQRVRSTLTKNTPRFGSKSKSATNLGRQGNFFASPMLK

Cytochrome P450 3A4, sequence (P08684 whole entry): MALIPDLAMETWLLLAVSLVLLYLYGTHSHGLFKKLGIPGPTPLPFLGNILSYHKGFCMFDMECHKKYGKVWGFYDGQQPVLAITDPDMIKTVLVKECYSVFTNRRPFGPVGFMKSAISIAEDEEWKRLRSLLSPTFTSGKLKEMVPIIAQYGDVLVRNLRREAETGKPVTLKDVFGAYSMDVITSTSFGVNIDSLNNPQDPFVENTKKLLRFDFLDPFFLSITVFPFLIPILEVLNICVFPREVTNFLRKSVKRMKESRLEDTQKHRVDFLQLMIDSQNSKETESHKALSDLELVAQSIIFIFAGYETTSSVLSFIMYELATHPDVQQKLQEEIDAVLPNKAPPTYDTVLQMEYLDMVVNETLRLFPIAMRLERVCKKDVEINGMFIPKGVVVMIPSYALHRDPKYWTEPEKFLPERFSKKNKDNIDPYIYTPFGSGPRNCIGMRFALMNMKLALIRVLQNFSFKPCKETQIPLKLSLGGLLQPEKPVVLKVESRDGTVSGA
Cytochrome P450 2D6, sequence (P10635 whole entry): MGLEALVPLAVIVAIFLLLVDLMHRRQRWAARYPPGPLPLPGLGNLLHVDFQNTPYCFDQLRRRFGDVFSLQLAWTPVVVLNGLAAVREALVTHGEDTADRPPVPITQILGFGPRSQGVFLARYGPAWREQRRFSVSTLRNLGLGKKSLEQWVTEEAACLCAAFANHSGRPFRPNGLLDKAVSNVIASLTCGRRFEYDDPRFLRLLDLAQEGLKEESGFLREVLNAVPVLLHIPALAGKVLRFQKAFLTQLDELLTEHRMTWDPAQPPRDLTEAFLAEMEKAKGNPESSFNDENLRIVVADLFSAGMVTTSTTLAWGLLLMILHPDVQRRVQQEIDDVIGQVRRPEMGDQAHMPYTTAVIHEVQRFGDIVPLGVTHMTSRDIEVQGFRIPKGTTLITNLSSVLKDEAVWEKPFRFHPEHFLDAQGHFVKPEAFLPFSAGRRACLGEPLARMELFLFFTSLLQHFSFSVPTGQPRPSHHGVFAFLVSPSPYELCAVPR
Cytochrome P450 2C19, sequence (P33261 whole entry): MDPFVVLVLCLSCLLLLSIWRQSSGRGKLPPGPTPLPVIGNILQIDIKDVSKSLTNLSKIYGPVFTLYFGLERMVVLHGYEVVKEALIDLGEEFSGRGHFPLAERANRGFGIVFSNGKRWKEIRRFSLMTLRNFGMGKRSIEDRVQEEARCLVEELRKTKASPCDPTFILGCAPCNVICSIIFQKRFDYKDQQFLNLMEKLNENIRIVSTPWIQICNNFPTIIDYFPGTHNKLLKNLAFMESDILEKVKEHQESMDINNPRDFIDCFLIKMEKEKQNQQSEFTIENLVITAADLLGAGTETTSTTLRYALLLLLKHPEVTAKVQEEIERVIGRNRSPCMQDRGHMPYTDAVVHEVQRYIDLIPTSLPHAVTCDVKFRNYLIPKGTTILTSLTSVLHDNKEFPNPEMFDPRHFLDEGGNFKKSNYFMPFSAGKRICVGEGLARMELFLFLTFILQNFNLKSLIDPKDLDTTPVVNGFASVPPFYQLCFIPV

Compound	EC50 [1]	EC50 (H4)	EC50 [2]	EC50 [9]	also measured
CC(C)(C)c1ccc(C(=O)NCCN2CCOCC2)cc1	11.8 µM (active)	18.3 µM (active)	12.5 µM (active)		
O=C(C1CCCN1S(=O)(=O)c1cccc2nsnc12)N1CCN(c2ccccc2)CC1 (stereo not given)	> 120 µM (not active)	> 120 µM (not active)	> 120 µM (not active)		
CC(Sc1nnc(NCc2ccccc2)s1)C(=O)Nc1ccc2c(c1)C(=O)c1ccccc1C2=O (stereo not given)	9.18 µM (active)	49.2 µM (active)	14.1 µM (active)		
O=Nc1c(O)n(Cc2ccc(Cl)cc2)c2ccccc12					AC50 (Cytochrome P450 2D6): 25.1 µM (inconclusive); CC50 [3]: 38.5 µM (active)
COc1ccc(S(=O)(=O)N2CCOC2CNC(=O)C(=O)NCCc2ccccc2)cc1C (stereo not given)					IC50 [4]: > 47.1 µM (inactive); EC50 [5]: > 53 µM (inactive)
Cc1cc2nnc(SCC(=O)NCc3ccco3)n2c2ccccc12	5.13 µM (active)	> 120 µM (not active)	> 120 µM (not active)		AC50 [6]: 2.9 µM (active)
O=C1c2ccccc2NC(c2ccccc2Cl)N1N=C1CCCCCC1 (stereo not given)	11.9 µM (active)	0.493 µM (active)	18.9 µM (active)		
CN1C(=O)C(O)(C2COC(C)(C)CC2=O)c2cc(Br)ccc21 (stereo not given)					IC50 [4]: > 47.1 µM (inactive); EC50 [5]: > 53 µM (inactive)
CCOC(=O)C1CCN(c2ncnc3c2nnn3Cc2ccccc2Cl)CC1					IC50 [4]: > 47.1 µM (inactive); EC50 [5]: > 53 µM (inactive)
c1ccc(CN2CCC(Nc3nc(-c4cccnc4)nc4ccccc34)CC2)cc1	> 120 µM (not active)	104 µM (active)	13 µM (active)		EC50 [7]: 8.99 µM (active); EC50 [8]: 1.34 µM (active)
CCOC(=O)c1sc2nc(C)n(CC(=O)NCC3CCCO3)c(=O)c2c1C (stereo not given)					IC50 [4]: > 47.1 µM (inactive); EC50 [5]: > 53 µM (inactive)
Cc1ccc(NC(=O)NC2=N/C(=C(/C#N)C(=O)N3CCCC3)c3ccccc32)cc1				> 195 µM (not active)	
O=S(=O)(Cc1ccccc1)N1CCC(c2nc(O)c3nnn(Cc4cccc(Cl)c4)c3n2)CC1					CC50 [3]: 48.9 µM (active)
Cc1c(Cl)cccc1NC(=O)c1cccc(OC(F)F)c1				> 195 µM (not active)	
CCOc1cc(/C=C2\SC(=S)N(Nc3ccccc3)C2=O)ccc1O	9.91 µM (active)	22.6 µM (active)	8.87 µM (active)		
O=[N+]([O-])c1ccc(NCCOc2ccccc2Cl)nc1				> 195 µM (not active)	
COc1ccc(-n2c(Cc3cccc([N+](=O)[O-])c3)nc3ccccc3c2=O)cc1					CC50 [3]: > 50 µM (active)
CCOC(=O)N1CCN(Cc2nc3c(c(=O)n(C)c(=O)n3C)n2CCC(C)C)CC1					IC50 [4]: > 47.1 µM (inactive); EC50 [5]: > 53 µM (inactive)
O=c1c2cccnc2n(-c2ccccc2)n1Cc1c(Cl)cccc1Cl				> 195 µM (not active)	
COc1ccc(-c2oc3ccccc3c2C(=O)Oc2ccccc2)cc1				152 µM (active)	

Compound	EC50 [1]	EC50 (H4)	EC50 [2]	EC50 [9]	also measured
CCOC(=O)c1c(C)nc2c(C)cccn12				> 195 µM (not active)	
CCOC(=O)c1cc(C#N)c(Oc2ccccc2OC)nc1-c1ccccc1					IC50 [4]: > 47.1 µM (inactive); EC50 [5]: > 53 µM (inactive); AC50 (Cytochrome P450 3A4): 11.2 µM (inconclusive)
O=c1c2ccccc2nnn1-c1ccc(Br)cc1	0.1 µM (active)	19 µM (active)	0.157 µM (active)		
COc1ccc(C(CC(=O)Nc2ccc(F)cc2)c2ccccc2)cc1 (stereo not given)					IC50 [4]: 24.3 µM (active); EC50 [5]: > 53 µM (inactive)
Oc1ccc(C23CCCC2C2(CCCC2)c2ccc(O)cc2O3)c(O)c1 (stereo not given)					CC50 [3]: 10.6 µM (active)
O=C(c1ccccc1)c1ccc(OCC(O)CN2CCCC2)cc1 (stereo not given)				> 195 µM (not active)	
Cc1cc(C)cc(OCC(O)CN2CCN(C(=O)c3ccco3)CC2)c1 (stereo not given)				> 195 µM (not active)	
COc1ccc(NC(=O)CSc2nnc3ccc(-c4ccncc4)nn23)cc1OC				> 195 µM (not active)	
COc1ccc(C2=NN(C(C#N)c3ccc(OC)cc3)C(c3ccccc3)C2)cc1 (stereo not given)	8.15 µM (active)	> 120 µM (not active)	5.24 µM (active)		
C[C@@]12C(=O)N(c3cccc(F)c3)C(=O)N1[C@H](c1ccc(Cl)cc1)[C@@H]1C(=O)N(C3CCCCC3)C(=O)[C@@H]12					CC50 [3]: 38.5 µM (active)
O=[N+]([O-])c1ccc(N2CCNCC2)cc1NCC1CCCO1 (stereo not given)				> 195 µM (not active)	AC50 (Cytochrome P450 2C19): 39.8 µM (inconclusive)
Cc1cc(C(=O)N2CCN(c3cccc(Cl)c3)CC2)c(C)o1	20.8 µM (active)	> 120 µM (not active)	> 120 µM (not active)		
O=C(CNC(=O)c1ccco1)Nc1ccc2c(c1)OCCO2				0.274 µM (active)	
COc1cc(C=O)ccc1OCCOCCOc1ccc(Cl)cc1Cl					IC50 [4]: > 47.1 µM (inactive); EC50 [5]: > 53 µM (inactive)
Cc1nc2ccc(NC(=O)c3cccc(S(=O)(=O)N4CCOCC4)c3)cc2s1					IC50 [4]: > 47.1 µM (inactive); EC50 [5]: > 53 µM (inactive)
COc1ccc(OC)c2c1s/c(=N\C(=O)C1COc3ccccc3O1)n2C (stereo not given)					IC50 [4]: > 47.1 µM (inactive); EC50 [5]: > 53 µM (inactive)
Cc1cccn2c(=O)c(/C=N/c3ccccc3)c(NCc3ccco3)nc12	> 120 µM (not active)	> 120 µM (not active)	> 120 µM (not active)		
CN(C)c1ccc(/C=C2/C(=N\O)C3CCN2CC3)cc1	6.23 µM (active)	28.8 µM (inconclusive)	26 µM (active)		IC50 [10]: 75.5 µM (active)
C=CCn1/c(=N/C(=O)C2CC2)sc2cc(NC(C)=O)ccc21				> 195 µM (not active)	
